Results reported in patent US20210353579A1, “HIGH PENETRATION COMPOSITIONS AND USES THEREOF” (Techfields Pharma Co., Ltd., priority 2006, published 2021).

Legend:
[1] = tested on: mice (SLAC:NOD-IDDM, type 1 diabetes); assay: Blood glucose in type 1 diabetes mice, transdermal; format: in vivo, mouse
Summary of the method: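 NOD-IDDM type 1 diabetic mice (n=7) received prodrug transdermally on shaved back skin (~1.5 cm²), at a dose equivalent to 30 mg/kg NSAIA, once daily for 7 weeks. Non-fasted blood glucose was measured every 3 days at 3 pm from week 4 to week 7.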

[2] = tested on: rats (SLAC/GK, type 2 diabetes); assay: Blood glucose in type 2 diabetes rats, transdermal; format: in vivo, rat; conditions: diabetic rats (SLAC/GK)
Summary of the method: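 GK type 2 diabetic rats (n=7) received the HPPs transdermally on a shaved ~1.5 cm^2 area of the back, at a dose equal to 20 mg/kg of NSAIAs, once daily for 5 weeks. Non-fasting blood glucose was measured every 3 days at 3 pm from week 2 to week 5, and blood lipids at the end of week 5.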

normal rats = assay: Blood glucose in normal rats, transdermal; format: in vivo, rat
Summary of the method: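 Compounds equivalent to 20 mg/kg NSAIA were applied transdermally to a shaved ~1.5 cm^2 area of rat backs once daily at 8 am for 5 weeks (n=7). Non-fasting blood glucose was measured every 3 days at 3 pm from week 2 to week 5, and blood lipids at the end of week 5.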

For `CC(=O)Oc1ccccc1C(=O)O.CCN(CC)CCOC(=O)c1ccccc1OC(C)=O` [P-1, diethylaminoethyl acetylsalicylate.acetylsalicylic acid salt], the “Blood glucose, Average” value ([1]; average fourth to seventh week, no fasting, equal to 30 mg/kg of NSAIAs once per day for 7 weeks) was 6.5 ± 1 mmol/L, the “Blood glucose, Baseline” value ([1]; baseline, equal to 30 mg/kg of NSAIAs) was 26.1 ± 5 mmol/L and the “Blood glucose, Average” value ([2]; average second to fifth week, no fasting, equal to 20 mg/kg of NSAIAs once per day for 5 weeks) was 6.5 ± 1 mmol/L. For the same compound, the “Blood glucose, Baseline” value ([2]; baseline, equal to 20 mg/kg of NSAIAs once per day) was 16.1 ± 3 mmol/L, the “Blood glucose, Average” value (normal rats; normal rats (second Average line of Table 24), average second to fifth week, equal to 20 mg/kg of NSAIAs once per day) was 6.3 ± 1 mmol/L and the “Blood glucose, Baseline” value (normal rats; normal rats (second Baseline line of Table 24), baseline, equal to 20 mg/kg of NSAIAs) was 6.4 ± 1 mmol/L.
